Legend:
[1] = target: T1, RBP4 (Homo sapiens, UniProt P02753); experiment: SPA assay measuring displacement of 3H-retinol from purified human RBP4; format: binding; details: for IC50: binding to human RBP4, 3H-retinol at 10 nM as radioligand; for ability to function as RBP4 ligands (competition binding): displacement of radioactive retinol from purified human RBP4
Protocol: 3H-retinol at 10 nM was used as a radioligand. […] Contacting residues are labeled and illustrated in stick format (MOE, Chemical Computing Group, Inc., Montreal, CA).
The affinity of palmitic acid, oleic acid, linoleic acid, and docosahexaenoic acid for RBP4 was tested using a SPA assay that measures displacement of radioactive retinol from purified human RBP4 (FIG. 21A).

[2] = target: T1, RBP4; details: Berni 1992; cited from earlier work
[3] = target: RBP4-TTR interaction (Homo sapiens, UniProt P02753); details: Berni 1992, Schaffer 1993; cited from earlier work
[4] = target: RBP4 (Rattus norvegicus, UniProt P04916); details: Adams 1995; cited from earlier work
[5] = system: ob/ob mice; details: ob/ob mice fed a high-fat diet, Koh 2012; cited from earlier work

Compound	IC50 [1] [µM]	binding to RBP4 [2]	RBP4-TTR interaction [3]	serum RBP4 and retinol [4]	weight gain, insulin resistance and fatty liver [5]	ability to function as RBP4 ligands (competition binding) [1]
CC/C=C\C/C=C\C/C=C\C/C=C\C/C=C\C/C=C\CCC(=O)O [Docosahexanoic acid (DHA), docosahexaenoic acid]	49.9					
CC1=C(/C=C/C(C)=C/C=C/C(C)=C/C(=O)Nc2ccc(O)cc2)C(C)(C)CCC1 [fenretinide, N-(4-hydroxy-phenyl)retinamide]		bind to RBP4	disrupt the RBP4-TTR interaction	reduce serum RBP4 and retinol	decreases	
CCCCC/C=C\C/C=C\CCCCCCCC(=O)O [linoleic acid]	17.3					weak RBP4 ligands
CCCCCCCC/C=C\CCCCCCCC(=O)O [oleic acid]	33					weak RBP4 ligands
CCCCCCCCCCCCCCCC(=O)O [palmitic acid]	22.6					weak RBP4 ligands
